Among the data in patent publication US20150225369A1, “DDR2 INHIBITORS FOR THE TREATMENT OF OSTEOARTHRITIS” (Merck Patent GmbH, priority 2012, published 2015) are IC50 values, retold here.

Structures are written as SMILES. pIC50: −log10 of the molar value. Like-named read-outs stand apart in the source and are kept apart here.

The target in assay [1] is T1, His-tagged human recombinant DDR-2 kinase domain (His-TEV-DDR2 467-855 aa) (Homo sapiens, UniProt Q16832).
T1 construct: His-TEV-DDR2 467-855 aa
T1 sequence (Q16832 467-855): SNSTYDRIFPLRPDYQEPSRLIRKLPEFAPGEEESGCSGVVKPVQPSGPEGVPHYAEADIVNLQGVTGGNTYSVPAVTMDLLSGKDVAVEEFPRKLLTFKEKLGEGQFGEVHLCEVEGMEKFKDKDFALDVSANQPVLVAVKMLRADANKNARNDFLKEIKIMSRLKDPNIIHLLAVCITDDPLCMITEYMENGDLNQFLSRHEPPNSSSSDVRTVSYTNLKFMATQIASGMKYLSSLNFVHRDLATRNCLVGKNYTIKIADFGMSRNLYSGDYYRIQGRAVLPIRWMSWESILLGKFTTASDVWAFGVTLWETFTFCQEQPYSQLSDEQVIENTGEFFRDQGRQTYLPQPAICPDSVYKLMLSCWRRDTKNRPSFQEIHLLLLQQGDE
The assay can be described thus: Autophosphorylation assay for biochemical activity testing of DDR2 (HTRF). In outline:
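Phospho-tyrosine was detected by HTRF between XL665 anti-6His and cryptate anti-phosphotyrosine PT66 antibodies, using the emission ratio. Inhibition was referenced to the inhibitor-free reaction.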

In assay [2] the target is T2, HEK293 transfected with human DDR2 (Homo sapiens, UniProt Q16832).
T2 construct: expressed in transfected cells; host or cells: HEK293 (PLT460F_(DDR2)-P7-1)
T2 sequence (Q16832 22-855): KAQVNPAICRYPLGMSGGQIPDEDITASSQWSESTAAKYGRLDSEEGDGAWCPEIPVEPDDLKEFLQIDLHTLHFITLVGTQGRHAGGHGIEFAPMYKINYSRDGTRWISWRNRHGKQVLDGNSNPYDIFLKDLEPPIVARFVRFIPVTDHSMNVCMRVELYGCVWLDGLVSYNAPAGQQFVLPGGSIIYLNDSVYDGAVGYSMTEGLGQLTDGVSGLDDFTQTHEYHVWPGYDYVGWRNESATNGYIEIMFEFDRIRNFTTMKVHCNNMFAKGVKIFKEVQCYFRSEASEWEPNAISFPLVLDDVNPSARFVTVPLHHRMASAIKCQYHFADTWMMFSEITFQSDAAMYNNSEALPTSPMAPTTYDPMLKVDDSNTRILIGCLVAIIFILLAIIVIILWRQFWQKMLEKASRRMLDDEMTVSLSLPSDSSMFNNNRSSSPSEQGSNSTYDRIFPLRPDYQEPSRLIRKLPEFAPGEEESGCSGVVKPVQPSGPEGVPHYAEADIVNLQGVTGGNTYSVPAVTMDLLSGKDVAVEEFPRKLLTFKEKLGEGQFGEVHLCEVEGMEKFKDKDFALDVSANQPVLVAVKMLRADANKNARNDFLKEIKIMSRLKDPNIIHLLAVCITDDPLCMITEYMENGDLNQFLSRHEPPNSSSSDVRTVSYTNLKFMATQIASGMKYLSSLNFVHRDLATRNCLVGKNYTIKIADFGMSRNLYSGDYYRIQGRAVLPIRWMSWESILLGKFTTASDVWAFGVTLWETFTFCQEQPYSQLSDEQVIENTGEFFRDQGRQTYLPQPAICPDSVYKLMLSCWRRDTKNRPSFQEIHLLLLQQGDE
The assay can be described thus: Phospho-DDR2 cellular assay (collagen II induced DDR2 phosphorylation, ELISA). Type of assay: cell-based. The conditions noted are these: read-out: IC50 [p-DDR2]. In a few lines: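 Cells seeded 48 h in 10% FBS, serum-starved 8 h, then given compound (5% DMSO) with 50 μg/ml chicken collagen II for 16 h at 37 °C. Lysates captured on anti-DDR2 antibody plates; phospho-DDR2 detected with HRP anti-phosphotyrosine antibody by chemiluminescence.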
In general terms: An ELISA detects its analyte on a solid surface through an enzyme-linked reagent.

Setting [3] is: biochemical DDR2 autophosphorylation.
The mark [4] stands for this setting: 4 nM DDR2 kinase domain, 150 μM ATP, 150 min at 22° C.
Where [5] appears, read: HEK293 transfected with human DDR2, 50 μg/ml chicken collagen II, 16 h.

The term pIC50 denotes −log10 of the IC50, conventionally taken in molar units. As for `CNCCOc1ccc(S(=O)(=O)C(F)(F)F)cc1NC(=O)NCc1ccc(Oc2ccnc(C(=O)NC)c2)c(C)c1` [compound 189, 4-(2-Methyl-4-{3-[2-(2-methylamino-ethoxy)-5-trifluoromethanesulfonyl-phenyl]-ureidomethyl}-phenoxy)-pyridine-2-carboxylic acid methylamide], the pIC50 in assay [1] (setting [3]) is 6.57; in assay [2] (cellular phospho-DDR2), 6.94.

For the molecule `COc1ccc(C(F)(F)F)cc1NC(=O)Nc1ccc(Cc2nc3cc[nH]c(=O)c3[nH]2)cc1` [compound 3], the negative logarithm of the IC50 (pIC50) in assay [1] (setting [4]) was 7.21; in assay [2] (setting [5]) it was 6.96.

As for `CNC(=O)c1cc(Oc2ccc(CNC(=O)Nc3cc(C(F)(F)F)ccc3OCC(N)=O)cc2)ccn1` [compound 190, 4-{4-[3-(2-Carbamoylmethoxy-5-trifluoromethyl-phenyl)-ureidomethyl]-phenoxy}-pyridine-2-carboxylic acid methylamide], the negative logarithm of the IC50 (pIC50) was 6.92 in assay [1] (setting [3]) and 7.40 in assay [2] (cellular phospho-DDR2).

`Cn1cc(C(F)(F)F)cc(NC(=O)NCc2ccc(Oc3ccnc4ccc(C(F)(F)F)cc34)cc2)c1=O` [compound 2]: the pIC50 in assay [1] (setting [4]) was 6.40; in assay [2] (setting [5]), 5.25.

As to `Cc1cc(Oc2ccc(CNC(=O)Nc3cc(C(F)(F)F)cnc3Cl)cc2)ccn1` [compound 29], the results for the pIC50 in assay [1] (setting [4]) and in assay [2] (setting [5]) were 6.46 and 7.03, respectively.

As to `CNCCOc1cc(Cl)c(C(F)(F)F)cc1NC(=O)NCc1ccc(Oc2ccnc(C(=O)NC)c2)cc1` [compound 127, 4-(4-{3-[4-Chloro-2-(2-methylamino-ethoxy)-5-trifluoromethyl-phenyl]-ureidomethyl}-phenoxy)-pyridine-2-carboxylic acid methylamide], the pIC50 in assay [1] (setting [3]) was 7.33; in assay [2] (cellular phospho-DDR2), 7.47.

As to `CNC(=O)c1cc(Oc2ccc(CNC(=O)Nc3cc(C)c(Cl)cc3OCCN3CCNCC3)cc2C)ccn1` [compound 143, 4-(4-{3-[4-Chloro-5-methyl-2-(2-piperazin-1-yl-ethoxy)-phenyl]-ureidomethyl}-2-methyl-phenoxy)-pyridine-2-carboxylic acid methylamide], the negative logarithm of the IC50 (pIC50) is 7.11 in assay [1] (setting [3]) and 7.18 in assay [2] (cellular phospho-DDR2).

For `CNC(=O)c1cc(Oc2ccc(CNC(=O)Nc3cc(C)ccn3)cc2C)ccn1` [compound 213, 4-{2-Methyl-4-[3-(4-methyl-pyridin-2-yl)-ureidomethyl]-phenoxy}-pyridine-2-carboxylic acid methylamide], the negative-log IC50 (pIC50) was 6.40 in assay [1] (setting [3]) and 6.69 in assay [2] (cellular phospho-DDR2).

Consider `CNC(=O)c1cc(Oc2ccc(CNC(=O)Nc3cc(C)c(Cl)cc3OCCN(C)C)cc2)ccn1` [compound 118, 4-(4-{3-[4-Chloro-2-(2-dimethylamino-ethoxy)-5-methyl-phenyl]-ureidomethyl}-phenoxy)-pyridine-2-carboxylic acid methylamide], for which the pIC50 in assay [1] (setting [3]) was 6.70; in assay [2] (cellular phospho-DDR2), 7.26.

In the case of `CNC(=O)c1cc(Oc2ccc(CNC(=O)Nc3cc(C)c(Cl)cc3OCCN)cc2C)ccn1` [compound 144, 4-(4-{3-[2-(2-Amino-ethoxy)-4-chloro-5-methyl-phenyl]-ureidomethyl}-2-methyl-phenoxy)-pyridine-2-carboxylic acid methylamide], the negative logarithm of the IC50 (pIC50) in assay [1] (setting [3]) was 7.31; in assay [2] (cellular phospho-DDR2), 7.28.

Take `CNC(=O)c1cc(Oc2ccc(CNC(=O)Nc3cc(Cl)ccc3OC)cc2)ccn1` [compound 19]: the negative-log IC50 (pIC50) was 7.52 in assay [1] (setting [3]) and 7.85 in assay [2] (cellular phospho-DDR2).

With `CNC(=O)c1cc(Oc2ccc(CNC(=O)Nc3cc(C)c(Cl)cc3OCCN)cc2)ccn1` [compound 145, 4-(4-{3-[2-(2-Amino-ethoxy)-4-chloro-5-methyl-phenyl]-ureidomethyl}-phenoxy)-pyridine-2-carboxylic acid methylamide], the negative-log IC50 (pIC50) in assay [1] (setting [3]) was 7.04; in assay [2] (cellular phospho-DDR2), 7.19.

`CNC(=O)c1cc(Oc2ccc(CNC(=O)Nc3cc(Cl)c(C)cc3OCCNC(C)C)cc2)ccn1` [compound 183, 4-(4-{3-[5-Chloro-2-(2-isopropylamino-ethoxy)-4-methyl-phenyl]-ureidomethyl}-phenoxy)-pyridine-2-carboxylic acid methylamide]: the results for the negative logarithm of the IC50 (pIC50) in assay [1] (setting [3]) and in assay [2] (cellular phospho-DDR2) were 7.05 and 7.46, respectively.

Consider `CNC(=O)c1cc(Oc2ccc(CNC(=O)Nc3ccc(C)cn3)cc2C)ccn1` [compound 211, 4-{2-Methyl-4-[3-(5-methyl-pyridin-2-yl)-ureidomethyl]-phenoxy}-pyridine-2-carboxylic acid methylamide], for which the negative logarithm of the IC50 (pIC50) is 6.11 in assay [1] (setting [3]) and 6.20 in assay [2] (cellular phospho-DDR2).

With `CNC(=O)c1cc(Oc2ccc(CNC(=O)Nc3cccnc3Cl)cc2)ccn1` [compound 226, 4-{4-[3-(2-Chloro-pyridin-3-yl)-ureidomethyl]-phenoxy}-pyridine-2-carboxylic acid methylamide], the negative-log IC50 (pIC50) in assay [1] (setting [3]) was 4.72; in assay [2] (cellular phospho-DDR2), 4.96.

Take `CNCCOc1cc(Cl)c(C)cc1NC(=O)NCc1ccc(Oc2ccnc(C(=O)NC)c2)cc1` [compound 125, 4-(4-{3-[4-Chloro-5-methyl-2-(2-methylamino-ethoxy)-phenyl]-ureidomethyl}-phenoxy)-pyridine-2-carboxylic acid methylamide]: the pIC50 in assay [1] (setting [3]) was 6.73; in assay [2] (cellular phospho-DDR2) it was 7.28.

With `CNC(=O)c1cc(Oc2ccc(CNC(=O)Nc3c(Cl)cncc3Cl)cc2)ccn1` [compound 84, 4-{4-[3-(3,5-Dichloro-pyridin-4-yl)-ureidomethyl]-phenoxy}-pyridine-2-carboxylic acid methylamide], the pIC50 was 6.09 in assay [1] (setting [3]) and 6.13 in assay [2] (cellular phospho-DDR2).

Take `COc1ncc(Cl)cc1NC(=O)NCc1ccc(Oc2ccnc(C)c2)cc1` [compound 27]: the pIC50 in assay [1] (setting [4]) is 6.72; in assay [2] (setting [5]) it was 7.38.

Take `CNCCOc1cc(C)c(Cl)cc1NC(=O)NCc1ccc(Oc2ccnc(C(=O)NC)c2)cc1` [compound 177, 4-(4-{3-[5-Chloro-4-methyl-2-(2-methylamino-ethoxy)-phenyl]-ureidomethyl}-phenoxy)-pyridine-2-carboxylic acid methylamide]: the negative logarithm of the IC50 (pIC50) in assay [1] (setting [3]) is 7.13; in assay [2] (cellular phospho-DDR2), 7.57.

Regarding `CNC(=O)c1cc(Oc2ccc(CNC(=O)Nc3cc(Cl)c(C)cc3OCC(C)(C)N)cc2)ccn1` [compound 185, 4-(4-{3-[2-(2-Amino-2-methyl-propoxy)-5-chloro-4-methyl-phenyl]-ureidomethyl}-phenoxy)-pyridine-2-carboxylic acid methylamide], the negative logarithm of the IC50 (pIC50) was 6.34 in assay [1] (setting [3]) and 6.76 in assay [2] (cellular phospho-DDR2).

With `CNCCOc1ccc(C(F)(F)F)cc1NC(=O)NCc1ccc(Oc2ccnc(C(=O)NC)c2)cc1` [compound 111, 4-(4-{3-[2-(2-Methylamino-ethoxy)-5-trifluoromethyl-phenyl]-ureidomethyl}-phenoxy)-pyridine-2-carboxylic acid methylamide], the pIC50 is 7.19 in assay [1] (setting [3]) and 7.62 in assay [2] (cellular phospho-DDR2).

With `CNC(=O)c1cc(Oc2ccc(CNC(=O)Nc3cc(Cl)c(C)cc3OC)cc2)ccn1` [compound 66, 4-{4-[3-(5-Chloro-2-methoxy-4-methyl-phenyl)-ureidomethyl]-phenoxy}-pyridine-2-carboxylic acid methylamide], the pIC50 in assay [1] (setting [3]) is 7.26; in assay [2] (cellular phospho-DDR2) it was 8.05.
